Measured values as given in patent publication US9849151B2, “Salacia compositions, methods of treatment by their administration, and methods of their preparation” (priority 2013, dated 2017).

Experiments:
3T3L1 cells = assay: Lipolysis assay, glycerol release in 3T3L1 adipocytes; format: cell-based; conditions: 24 h, Salacia composition 100 ug/ml, isoproterenol 10 uM, ratio higher than 1.40 = enhances lipolysis
Procedure: The assay is carried out to assess the ability of the extracts to breakdown triglycerides to glycerol and free fatty acids. The Salacia composition, such as that of Example 1 was screened for lipolysis in 3T3L1 cell model. 3T3L1 preadipocytes were cultured for a week in Dulbecco modified Eagle's medium (DMEM) supplemented with 10% new calf serum, 25 mM glucose, 2 mM glutamine, 100 U/ml penicillin, 100 ug/ml streptomycin at 37° C. in 5% CO2 atmosphere until 100% confluence. Two days after confluence, the differentiation of 3T3L1 into adipocytes was initiated using (DMEM) supplemented with 10% fetal bovine serum (FBS), 25 mM glucose, 2 mM glutamine, 100 U/ml penicillin, 100 ug/ml streptomycin and differentiation inducers (0.5 mM isobutyl-methylxanthine (IBMX), 10 μg/ml insulin and 1 μM dexamethasone) for 48 h (day 0-day 2). The cells were then cultured for another 48 h with the same medium containing only 10 μg/ml insulin (day 2 to day 4), then with only the medium (day 4 to day 6). The Salacia composition, such as that of Example 1 was added to the medium at the concentration 100 ug/ml for 24 h and assessed for lipolysis. […] The glycerol released after 24 h in the cell media was assessed using glycerol reagent (sigma) and expressed relative to the cellular protein content. The protein content was assessed using bicinchoninic acid (BCA) PierceTM kit. […]

[1] = system: Hormone Sensitive lipase (HSL); assay: Hormone Sensitive Lipase assay, Western blot densitometry of adipocyte lysates; format: cell-based; conditions: 3T3L1 adipocytes treated 24 h, non-treated = 1.00
Procedure: The glycerol released after 24 h in the cell media was assessed using glycerol reagent (sigma) and expressed relative to the cellular protein content. The protein content was assessed using bicinchoninic acid (BCA) PierceTM kit. […] Proteins were collected from cell lysates of 3T3L1 adipocytes treated for 24 h with the Salacia composition or isoproterenol. Protein samples were blotted and probed for total hormone sensitive lipase (HSL), and phosphorylated hormone sensitive lipase at […]. Then, the ratio of phosphorylated-HSL to total HSL was compared between treated and non-treated samples.

[2] = Antioxidant activity by DPPH assay; conditions: at 20 μM
Procedure: The capacity of plant extracts or fractions to directly react with and quench free radicals was evaluated as described earlier (Cheng et al 2006). A stock solution of DPPH (200 μM) was prepared in ethanol. The assay was performed in 96-well plates. The reaction mixture, containing 100 μL of DPPH and 100 μL of test sample, was incubated at 37° C. for 30 min. The absorbance was measured at 515 nm. Gallic acid was used as a positive control. Percent DPPH radical scavenging activity was calculated as follows. [Reference: Cheng Z, Morre J, Yub L (2006) J Agric Food Chem, 54: 7429-7436] % radical scavenging activity=[1−(sample-blank)/(control-blank)]×100

Row | Compound | Glycerol/protein ratio (3T3L1 cells) | Phospho-HSL (densitometry) ([1]; Serine 563) | Ratio phosphorylated-HSL/Total HSL [1] | Total HSL (densitometry) [1] | % radical scavenging activity (DPPH) [2] [%]
1 | CC(C)NCC(O)c1ccc(O)c(O)c1 (centres unmarked) [Isoproterenol] | 1.50 | 2.63 | 1.01 | 2.60 | 
2 | O=C(O)c1cc(O)c(O)c(O)c1 [Gallic acid] |  |  |  |  | 86
